Laboratory results reported in US11072598B2, “Somatostatin modulators and uses thereof” (CRINETICS PHARMACEUTICALS, INC., priority 2017, dated 2021).

What follows are compounds tested against T1, human somatostatin receptor subtype 2 (Homo sapiens, UniProt P30874) (assay: cAMP functional assay for SSTR2 agonists). Details: inhibition of cAMP activities via human SST2 receptor (SSTR2), CHO-K1 cells; read-out: EC50.
T1 construct: expressed in transfected cells
Format: cell-based
Description: General overview: All five SSTR subtypes are Gi coupled G-protein coupled receptors (GPCRs) that lead to decreases in intracellular cyclic AMP (cAMP) when activated by an agonist. Therefore, measurement of intracellular cAMP levels can be used to assess whether compounds of the invention are agonists of SSTR subtypes (John Kelly, Troy Stevens, W. Joseph Thompson, and Roland Seifert, Current Protocols in Pharmacology, 2005, 2.2.1-2.2). One example of an intracellular cAMP assay is described below. cAMP assay protocol:
Four days prior to the assay, 5,000 Chinese hamster ovary cells (CHO-K1, ATCC #CCL-61) stably expressing the human somatostatin receptor subtype 2 are plated in each well of a 96-well tissue culture-treated plate in Ham's F12 growth media (ThermoFisher #10-080-CM) supplemented with 10% donor bovine serum (Gemini Bio-Products #100-506), 100 U/mL penicillin; 100 ug/mL streptomycin; 2 mM L-glutamine (Gemini Bio-Products #400-110) and 0.2 mg/mL hygromycin B (GoldBio #31282-04-9). The cells are cultured at 37° C., 5% CO2 and 95% humidity. On the day of the assay, the media is aspirated and the cells are treated with 50 μL of 1.6 μM NKH477 (Sigma #N3290) plus various dilutions of compounds of the invention in assay buffer [1× Hank's Balanced Salt Solution (ThermoFisher #SH3058802), 0.5 mM HEPES pH 7.4, 0.1% bovine serum albumin, 0.2 mM 3-Isobutyl-1-methylxanthine (IBMX, VWR #200002-790)]. The cells are incubated for 20 minutes at 37° C. […] The cells are treated with 50 μL of lysis buffer (HRTF cAMP kit, Cisbio). The lysate is transferred to 384-well plates and cAMP detection and visualization antibodies are added and incubated for 1-24 hours at room temperature. The time-resolved fluorescent signal is read with a Tecan M1000Pro multiplate reader. The intracellular cAMP concentrations are calculated by regression to a standard curve and are plotted vs. the concentration of the compounds of the invention and the EC50 of the compounds are calculated using standard methods. All data manipluations are in GraphPad Prism v6.

T1 sequence (P30874 whole entry): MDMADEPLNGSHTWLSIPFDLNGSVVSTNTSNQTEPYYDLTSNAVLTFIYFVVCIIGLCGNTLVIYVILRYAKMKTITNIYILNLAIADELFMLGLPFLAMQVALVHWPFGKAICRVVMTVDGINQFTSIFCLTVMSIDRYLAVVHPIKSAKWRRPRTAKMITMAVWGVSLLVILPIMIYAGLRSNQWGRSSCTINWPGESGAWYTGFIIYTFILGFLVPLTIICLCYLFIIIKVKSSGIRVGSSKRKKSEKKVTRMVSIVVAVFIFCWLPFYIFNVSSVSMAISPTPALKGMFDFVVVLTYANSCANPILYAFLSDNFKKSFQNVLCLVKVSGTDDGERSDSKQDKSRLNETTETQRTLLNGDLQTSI

`Cc1cc(F)cc(-c2cnc(N)c(-c3nc4cc(OC5CCC5)ccc4[nH]3)c2N2CCC(N)CC2)c1` [Compound 1-19, 4-(4-aminopiperidin-1-yl)-3-(5-cyclobutoxy-1H-1,3-benzodiazol-2-yl)-5-(3-fluoro-5-methylphenyl)pyridin-2-amine] and `Cc1cc(F)cc(-c2cnc(N)c(-c3cc4ccc(C#N)cc4[nH]3)c2N2CCC(N)CC2)c1` [Compound 1-33, 2-[2-amino-4-(4-aminopiperidin-1-yl)-5-(3-fluoro-5-methylphenyl)pyridin-3-yl]-1H-indole-6-carbonitrile] cannot be ordered by EC50: < 0.01 µM for the first, < 0.01 µM for the second.

`C#Cc1ccc2[nH]c(-c3c(N)ncc(-c4cc(C)cc(F)c4)c3N3CCC(N)CC3)nc2c1` [Compound 1-65, 4-(4-aminopiperidin-1-yl)-3-(5-ethynyl-1H-1,3-benzodiazol-2-yl)-5-(3-fluoro-5-methylphenyl)pyridin-2-amine] and `COc1ccc2[nH]c(-c3nncc(-c4cc(C)cc(F)c4)c3N3CCC(N)CC3)nc2c1` [Compound 3-10, 1-[5-(3-fluoro-5-methylphenyl)-3-(5-methoxy-1H-1,3-benzodiazol-2-yl)pyridazin-4-yl]piperidin-4-amine] cannot be ordered by EC50: < 0.01 µM for the first, < 0.01 µM for the second.

`C=Cn1c(-c2c(N)ncc(-c3cc(C)cc(F)c3)c2N2CCC(N)CC2)nc2cc(F)c(F)cc21` [Compound 1-4, 4-(4-aminopiperidin-1-yl)-3-(1-ethenyl-5,6-difluoro-1H-1,3-benzodiazol-2-yl)-5-(3-fluoro-5-methylphenyl)pyridin-2-amine] and `Cc1cc(Cl)cc(-c2cnc(N)c(C=NOC(C)(C)C)c2N2CCC(N)CC2)c1` [Compound 1-38] cannot be ordered by EC50: < 0.01 µM for the first, < 0.01 µM for the second.

`N#Cc1cc(F)c2[nH]c(-c3c(N)ncc(-c4cc(F)cc(Cl)c4)c3N3CCC(N)CC3)nc2c1` [Compound 1-85, 2-[2-amino-4-(4-aminopiperidin-1-yl)-5-(3-chloro-5-fluorophenyl)pyridin-3-yl]-7-fluoro-1H-1,3-benzodiazole-5-carbonitrile] and `CNc1ncc(-c2cc(C)cc(F)c2)c(N2CCC(N)CC2)c1-c1nc2cc(C#N)cc(F)c2[nH]1` [Compound 1-89, 2-[4-(4-aminopiperidin-1-yl)-5-(3-fluoro-5-methylphenyl)-2-(methylamino)pyridin-3-yl]-7-fluoro-1H-1,3-benzodiazole-5-carbonitrile] cannot be ordered by EC50: < 0.01 µM for the first, < 0.01 µM for the second.

`COc1cc(Cl)cc2nc(-c3c(N)ncc(-c4cc(C)cc(F)c4)c3N3CCC(N)CC3)[nH]c12` [Compound 1-94, 4-(4-aminopiperidin-1-yl)-3-(5-chloro-7-methoxy-1H-1,3-benzodiazol-2-yl)-5-(3-fluoro-5-methylphenyl)pyridin-2-amine] and `Cc1cc(F)cc(-c2cnc(N)c(-c3nc4cc(OC5CC5)ccc4[nH]3)c2N2CCC(N)CC2)c1` [Compound 1-20, 4-(4-aminopiperidin-1-yl)-3-(5-cyclopropoxy-1H-1,3-benzodiazol-2-yl)-5-(3-fluoro-5-methylphenyl)pyridin-2-amine] cannot be ordered by EC50: < 0.01 µM for the first, < 0.01 µM for the second.

`Cc1cc(F)cc(-c2cnc(N)c(-c3nc4ccc(Cl)cc4n3C)c2N2CCC(N)CC2)c1` [Compound 1-29, 4-(4-aminopiperidin-1-yl)-3-(6-chloro-1-methyl-1H-1,3-benzodiazol-2-yl)-5-(3-fluoro-5-methylphenyl)pyridin-2-amine] and `Cc1cc(F)cc(-c2cnc(N)c(-c3nc4c(F)cc(OCC#N)cc4[nH]3)c2N2CCC(N)CC2)c1` [Compound 1-60, 2-({2-[2-amino-4-(4-aminopiperidin-1-yl)-5-(3-fluoro-5-methylphenyl)pyridin-3-yl]-4-fluoro-1H-1,3-benzodiazol-6-yl}oxy)acetonitrile] cannot be ordered by EC50: < 0.01 µM for the first, < 0.01 µM for the second.

`Cc1cc(F)cc(-c2cnnc(-c3cc4ccc(C)cc4[nH]3)c2N2CCC(N)CC2)c1` [Compound 3-16, 1-[5-(3-fluoro-5-methylphenyl)-3-(6-methyl-1H-indol-2-yl)pyridazin-4-yl]piperidin-4-amine] and `Cc1cc(F)cc(-c2cnnc(-c3cc4ccc(C(N)=O)cc4[nH]3)c2N2CCC(N)CC2)c1` [Compound 3-19, 2-[4-(4-aminopiperidin-1-yl)-5-(3-fluoro-5-methylphenyl)pyridazin-3-yl]-1H-indole-6-carboxamide] cannot be ordered by EC50: < 0.01 µM for the first, < 0.01 µM for the second.

`Cc1cc(F)cc(-c2cnc(N)c(-c3nc4cccc(C=NO)c4[nH]3)c2N2CCC(N)CC2)c1` [Compound 1-22, 4-(4-aminopiperidin-1-yl)-5-(3-fluoro-5-methylphenyl)-3-{7-[(hydroxyimino)methyl]-1H-1,3-benzodiazol-2-yl]pyridin-2-amine] and `COC(=O)c1ccc2cc(-c3nncc(-c4cc(C)cc(F)c4)c3N3CCC(N)CC3)[nH]c2c1` [Compound 3-18, methyl 2-[4-(4-aminopiperidin-1-yl)-5-(3-fluoro-5-methylphenyl)pyridazin-3-yl]-1H-indole-6-carboxylate] cannot be ordered by EC50: < 0.01 µM for the first, < 0.01 µM for the second.

`Cc1cc(F)cc(-c2cnnc(-c3cc4cc(C#N)ccc4[nH]3)c2N2CCC(N)CC2)c1` [Compound 3-17, 2-[4-(4-aminopiperidin-1-yl)-5-(3-fluoro-5-methylphenyl)pyridazin-3-yl]-1H-indole-5-carbonitrile] and “4-(4-aminopiperidin-1-yl)-5-(3-fluoro-5-methylphenyl)-3-(7-methoxy-1H-1,3-benzodiazol-2-yl)pyridin-2-amine [Compound 1-13]” cannot be ordered by EC50: < 0.01 µM for the first, < 0.01 µM for the second.

`COc1cc(F)c2[nH]c(-c3c(N)ncc(-c4cc(C)cc(C)c4)c3N3CCC(N)CC3)nc2c1` [Compound 1-84] and `Nc1ncc(-c2cc(F)cc(Cl)c2)c(N2CCC(N)CC2)c1-c1nc2cc(F)cc(F)c2[nH]1` [Compound 1-77, 4-(4-aminopiperidin-1-yl)-5-(3-chloro-5-fluorophenyl)-3-(5,7-difluoro-1H-1,3-benzodiazol-2-yl)pyridin-2-amine] cannot be ordered by EC50: < 0.01 µM for the first, < 0.01 µM for the second.

`COc1ncc(-c2cc(C)cc(F)c2)c(N2CCC(N)CC2)c1-c1nc2cc(C#N)ccc2[nH]1` [Compound 2-8, 2-[4-(4-aminopiperidin-1-yl)-5-(3-fluoro-5-methylphenyl)-2-methoxypyridin-3-yl]-1H-1,3-benzodiazole-5-carbonitrile] and `COc1ccc2cc(-c3nncc(-c4cc(C)cc(F)c4)c3N3CCC(N)CC3)[nH]c2c1` [Compound 3-5, 1-[5-(3-fluoro-5-methylphenyl)-3-(6-methoxy-1H-indol-2-yl)pyridazin-4-yl]piperidin-4-amine] cannot be ordered by EC50: < 0.01 µM for the first, < 0.01 µM for the second.

`Cc1cc(F)cc(-c2cnnc(-c3cc4ccc(C#N)cc4[nH]3)c2N2CCC(N)CC2)c1` [Compound 3-12, 2-[4-(4-aminopiperidin-1-yl)-5-(3-fluoro-5-methylphenyl)pyridazin-3-yl]-1H-indole-6-carbonitrile] and `Cc1cc(F)cc(-c2cnnc(-c3cc4ccc(Cl)cc4[nH]3)c2N2CCC(N)CC2)c1` [Compound 3-2, 1-[3-(6-chloro-1H-indol-2-yl)-5-(3-fluoro-5-methylphenyl)pyridazin-4-yl]piperidin-4-amine] cannot be ordered by EC50: < 0.01 µM for the first, < 0.01 µM for the second.

First: Cc1cc(F)cc(-c2cnc(N)c(-c3nc4cc(Cl)ccc4[nH]3)c2N2CC[C@@H](N)[C@H](C#N)C2)c1 (relative stereo) [Compound 1-42, trans-4-amino-1-[2-amino-3-(5-chloro-1H-1,3-benzodiazol-2-yl)-5-(3-fluoro-5-methylphenyl)pyridin-4-yl]piperidine-3-carbonitrile]
Second: Cc1cc(F)cc(-c2cnnc(-c3cc4ccc(-c5nn[nH]n5)cc4[nH]3)c2N2CCC(N)CC2)c1 [Compound 3-15, 1-[5-(3-fluoro-5-methylphenyl)-3-[6-(2H-1,2,3,4-tetrazol-5-yl)-1H-indol-2-yl]pyridazin-4-yl]piperidin-4-amine]
The EC50 of the first is lower: < 0.01 µM for the first, > 0.1 µM for the second. The first is the more potent here.

`CON=Cc1ccc2[nH]c(-c3c(N)ncc(-c4cc(C)cc(F)c4)c3N3CCC(N)CC3)nc2c1` [Compound 1-40, 4-(4-aminopiperidin-1-yl)-5-(3-fluoro-5-methylphenyl)-3-{5-[(methoxyimino)methyl]-1H-1,3-benzodiazol-2-yl}pyridin-2-amine] and `Cc1cc(F)cc(-c2cnnc(-c3cc4cccc(C#N)c4[nH]3)c2N2CCC(N)CC2)c1` [Compound 3-23, 2-[4-(4-aminopiperidin-1-yl)-5-(3-fluoro-5-methylphenyl)pyridazin-3-yl]-1H-indole-7-carbonitrile] cannot be ordered by EC50: < 0.01 µM for the first, < 0.01 µM for the second.

For `Cc1cc(C#N)cc(-c2cnc(N)c(-c3nc4cc(Cl)ccc4[nH]3)c2N2CCC(N)CC2)c1` [Compound 1-25, 3-[6-amino-4-(4-aminopiperidin-1-yl)-5-(5-chloro-1H-1,3-benzodiazol-2-yl)pyridin-3-yl]-5-methylbenzonitrile], the EC50 was < 0.01 µM.
